Experiment [1] addresses T1, PP1α (PP1CA) (Oryctolagus cuniculus, UniProt P62139).
T1 construct: purchased New England Biolabs P0754
The experiment can be described thus: Protein phosphatase test (PP1 activity, DiFMUP fluorescent substrate). The experiment is classed as biochemical. The settings on record: for IC50: PP1CA at 80 mU, fluorescent substrate (50 μM), molecules from 50 μM to 50 nM, read-out: PP1 Inhibition IC50. Here is the method:
FIG. 13 presents the graph showing the inhibition of the PP1Cα activity by compound 6 in vitro. PP1Cα (New England Biolabs, 30 mU/well) was incubated in the presence of compound 6 at different concentrations and a fluorescent substrate, diFMUP.
Determination of the 1050 was carried out with PP1CA at 80 mU in the presence of a fluorescent substrate
(50 μM) and different concentrations of molecules from 50 μM to 50 nM.
For the activity tests, PP1α (New England Biolabs # P0754) was used at a final concentration of 30 mU or 80 mU for the screening of all the analogues. 6,8-difluoro-4-methylumbelliferyl phosphate (DiFMUP, Invitrogen # D6567) was used as fluorescent substrate at a concentration of […]. All the tests were carried out in a final volume of 100 μl, at 37° C. in 96-microwell plates (Greiner #655096).
Compound 6, combretastatin A4 (CA-4) as well as all the analogues were diluted in 50 μl of PP1 buffer (100 mM Tris-HCl, pH 7.5, 4 mM DTT, 0.2 mM EDTA, 0.5 mM MnCl2) from 50 μM to 50 nM. Corresponding quantities of DMSO were added to control wells. PP1α (30 or 80 mU in 30 μl of PP1 buffer) was added to each well. After incubating for 15 minutes at AT, the substrate was added (in 20 μl of PP1 buffer). After incubating for 20 minutes at 37° C., the fluorescence was measured in a plate fluorometer at 355-460 nm in order to assay the phosphatase activity. The test was carried out three times in duplicate for each condition.

The subject of experiment [2] is bovine brain tubulin. The experiment is described as follows: In vitro tubulin polymerization test (turbidimetry at 350 nm). The experiment is classed as biochemical. As to conditions: molecules at 50 μM, calculated at t=3000 s, DMSO control = 100%. On the procedure:
Tubulin was purified from bovine brain using the polymerization-depolymerization process described by (Castoldi M and Popov A V. Protein Expr Purif. 2003, 32(1): pp 83-8).
The in vitro tubulin polymerization tests (at 50 μM) were carried out in the presence of GTP 1 mM in BRB80 buffer (80 mM K-PIPES pH 6.8, 1 mM MgCl2, 1 mM EGTA) at 37° C. The tests were carried out in 96-microwell plates (half-wells) (Costar plates, Corning #3695), in triplicate with a final volume of 70 μl. Tubulin assembly was carried out in the presence of compound 6 or its analogues (all used at a concentration of 50 μM) and was monitored by turbidimetry measurement at 350 nm using a spectrophotometer (Spectramax More, Molecular Devices).
Measurement of the effect of a molecule on polymerization was calculated at t=3000 s taking the value of the control at the same time as being equal to 100%.

Experiment [3] concerns HeLa cells. The experiment is described as follows: Indirect immunofluorescence: effect on HeLa cells (mitotic arrest, microtubule depolymerization). The experiment is classed as cell-based, human. On the set-up: key to Effect on Hela at 25 μM / Effect on Hela at 100 μM / Effect on Hela at 50 and 100 μM / Effect on Hela at 50 μM: —: −: no activity on the cells at 25 μM (if there is an effect at high concentrations, this is specified in the table).; *: weak activity (MA and/or slight depolymerization of the MTs and/or slight inhibition of proliferation),; **: average activity (MA and/or moderate depolymerization of the MTs and/or moderate inhibition of proliferation),; ***: strong activity (MA and/or pronounced depolymerization of the MTs and/or pronounced inhibition of proliferation),; ****: very strong activity (MA and/or very pronounced depolymerization of the MTs and/or strong inhibition of proliferation). As to conditions: 24 hours; for Effect on Hela at 25 μM: mitotic index and/or depolymerization of the MTs. Here is the method:
The cells were cultured on slides in 24-well plates and incubated for 24 hours with molecule 6 at different concentrations from 1 to 10 μM.
Corresponding quantities of DMSO were added to the culture medium in the control wells.
The cells were fixed in a solution of PBS with 4% paraformaldehyde (PFA) and 0.1% glutaraldehyde (GA), for 15 minutes and centrifuged at 300 g for the last 10 minutes of the fixing. The slides were rinsed in PBS and the free aldehyde groups were reduced by two successive 5-minute incubations in PBS containing 1 mg/ml of NaBH4.
After one washing with PBS then another with PBST (PBS with 0.5% triton-X-100), the cells are incubated for 30 minutes at ambient temperature with anti α-tubulin monoclonal antibody solution (DM1A clone, Sigma # T6199) diluted to 1:200 in PBST. After 3 10-minute washings with PBST, the cells are incubated for 30 minutes at ambient temperature in a solution of goat anti-mouse polyclonal antibodies coupled with Alexa 488 (1:1000, Molecular Probes # A-11029) and phalloidin coupled with Texas red to label the actin (1:2000, Molecular Probes # T7471), in PBST also containing Hoechst 33258 (1 μg/ml) for labelling the DNA. After 3 10-minute washings in PBST, the slides are mounted on plates in Fluorsave™ mounting medium (Calbiochem #345789) and are observed and analyzed using an Axiovert 200M inverted fluorescence microscope (Zeiss®). The images are produced with a Plan-Apochromat 63× oil objective (Zeiss®) by means of a Coolsnap HQ camera (Roper Scientifics®) and with Metamorph acquisition software (Universal Imaging™ Corporation).
In order to evaluate the effect of the analogues of compound 6 on PHFs and HeLa cells, the immunofluorescence technique described above was used and adapted to a 96-well dish format. The cells were seeded in glass-bottomed 96-well dishes and incubated for 24 hours in the presence of different concentrations of molecules from 100 μM to 50 nM. And in the same way as described above, the cells were fixed and immunolabelled. Analysis of the phenotypes as well as counting the mitotic cells were carried out with the same microscope but using a ×40 objective (Olympus). The molecules were compared with each other with respect to the mitotic arrest induced on PHFs and HeLa cells at 25 and 0.3 μM.
The mitotic index and/or the depolymerization of the MTs were evaluated at 25 μM.

The test system of experiment [4] is HMEC cells. The experiment can be described thus: Proliferation of HMEC cells (GI50). As to conditions: Homo sapiens, 120 h, 50 μM to 1 nM for 5 days. The class given is cell-based. Here is the method:
The HMECs were seeded at 10% confluence and incubated with the molecules at different concentrations (from 50 μM to 1 nM) for 5 days. The GI50 (50% Growth Inhibition) defines the concentration inducing a 50% reduction in proliferation with respect to the control.

In general, IC50 refers to the concentration that inhibits the measured activity by half. As usually defined, the GI50 is the concentration giving 50% growth inhibition.

T1 sequence (P62139 whole entry): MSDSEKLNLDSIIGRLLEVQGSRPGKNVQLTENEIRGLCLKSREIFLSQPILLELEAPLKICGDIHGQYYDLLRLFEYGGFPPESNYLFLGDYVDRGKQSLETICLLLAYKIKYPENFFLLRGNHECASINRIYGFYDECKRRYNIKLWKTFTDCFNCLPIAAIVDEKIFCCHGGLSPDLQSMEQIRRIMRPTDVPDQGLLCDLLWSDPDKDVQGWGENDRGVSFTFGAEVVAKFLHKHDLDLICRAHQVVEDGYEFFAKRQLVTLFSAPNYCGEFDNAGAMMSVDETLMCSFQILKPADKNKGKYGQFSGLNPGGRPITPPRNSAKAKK

Consider `COc1ccc(-c2[nH]c(=O)c3cc(OC)ccc3c2N)cc1` [Compound 1, 4-amino-7-methoxy-3-(4-methoxyphenyl)isoquinolin-1(2H)-one], for which the IC50 in experiment [1] was more than 50 µM. The Tubulin polymerization inhibition result in experiment [2] was “— ((−) signifies that the molecule induces little or no tubulin assembly inhibition in vitro: 0+ or − −5% of the DMSO control.)”. In addition, in experiment [3], the “Effect on Hela at 25 μM” value was “***”. In experiment [4], this compound returned a GI50 of 1 to 25 µM.

For `Nc1c(-c2ccccc2)[nH]c(=O)c2ccccc12` [Compound 2], the IC50 in experiment [1] was more than 50 µM. For the same compound, the Tubulin polymerization inhibition entry in experiment [2] is “— ((−) signifies that the molecule induces little or no tubulin assembly inhibition in vitro: 0+ or − −5% of the DMSO control.)”. Further, in experiment [3], the “Effect on Hela at 25 μM” value is “—”. Besides, in experiment [4], the GI50 was 25 to 50 µM.

As to `COc1ccc(-c2cc3ccc(OC)cc3c(=O)[nH]2)cc1` [Compound 4, 7-methoxy-3-(4-methoxyphenyl)isoquinolin-1(2H)-one], in experiment [1], the IC50 was more than 50 µM. The Tubulin polymerization inhibition result in experiment [2] is on record as “— ((−) signifies that the molecule induces little or no tubulin assembly inhibition in vitro: 0+ or − −5% of the DMSO control.)”. For the same compound, in experiment [3], the “Effect on Hela at 25 μM” value is given as “—”; the “Effect on Hela at 50 and 100 μM” value is recorded as “**”. In experiment [4], this compound came in with a GI50 of more than 50 µM.

As to `COc1ccc(-c2[nH]c(=O)c3cc(OC)ccc3c2-c2ccc(OC)cc2)cc1` [Compound 5], in experiment [1], the IC50 is more than 50 µM. The Tubulin polymerization inhibition result in experiment [2] is recorded as “+++ ((+++) signifies that the molecule induces tubulin assembly inhibition in vitro of more than 50% with respect to the DMSO control.)”. In experiment [3], the “Effect on Hela at 25 μM” value was “***”. In addition, the 50% growth inhibitory concentration (GI50) in experiment [4] was in the range of 0.1 to 1 µM.

On to `COc1ccc(-c2[nH]c(=O)c3ccccc3c2[N+](=O)[O-])cc1` [Compound 7], for which the IC50 in experiment [1] was more than 50 µM. Moreover, in experiment [2], the Tubulin polymerization inhibition entry is “+ ((+) signifies that the molecule induces tubulin assembly inhibition in vitro comprised between 6 and 25% of the DMSO control.)”. For the same compound, the “Effect on Hela at 25 μM” value in experiment [3] is reported as “***”. Also, the concentration for 50% growth inhibition (GI50) in experiment [4] fell in the range of 1 to 25 µM.

With `COc1ccc(-c2[nH]c(=O)c3ccccc3c2N)cc1` [Compound 8], the IC50 in experiment [1] is more than 50 µM. In addition, the Tubulin polymerization inhibition entry in experiment [2] is given as “— ((−) signifies that the molecule induces little or no tubulin assembly inhibition in vitro: 0+ or − −5% of the DMSO control.)”. Further, the “Effect on Hela at 25 μM” value in experiment [3] is recorded as “—”. Moreover, the GI50 in experiment [4] was more than 50 µM.

`COc1ccc2c(NC=O)c(-c3ccccc3)[nH]c(=O)c2c1` [Compound 9, N-(7-Methoxy-1-oxo-3-phenyl-1,2-dihydroisoquinoline-4-yl)methanamide]: the half-maximal inhibitory concentration (IC50) in experiment [1] is more than 50 µM. In addition, the Tubulin polymerization inhibition result in experiment [2] is “— ((−) signifies that the molecule induces little or no tubulin assembly inhibition in vitro: 0+ or − −5% of the DMSO control.)”. Further, in experiment [3], the “Effect on Hela at 25 μM” value was “—”; the “Effect on Hela at 50 and 100 μM” value is listed as “**”. Moreover, the 50% growth inhibitory concentration (GI50) in experiment [4] fell in the range of 25 to 50 µM.

Regarding `COc1ccc2c(N)c(-c3ccccc3)[nH]c(=O)c2c1` [Compound 10], in experiment [1], the IC50 was more than 50 µM. The Tubulin polymerization inhibition result in experiment [2] is “+ ((+) signifies that the molecule induces tubulin assembly inhibition in vitro comprised between 6 and 25% of the DMSO control.)”. In experiment [3], the “Effect on Hela at 25 μM” value is reported as “—”; the “Effect on Hela at 50 and 100 μM” value is reported as “*”. Moreover, the GI50 in experiment [4] is more than 50 µM.

Consider `COc1ccc(-c2[nH]c(=O)c3cc(OC)ccc3c2Cl)cc1` [Compound 14, 4-Chloro-7-methoxy-3-(4-methoxyphenyl)isoquinoline-1(2H)-one], for which the IC50 in experiment [1] is more than 50 µM. For the same compound, the Tubulin polymerization inhibition result in experiment [2] is “+++ ((+++) signifies that the molecule induces tubulin assembly inhibition in vitro of more than 50% with respect to the DMSO control.)”. In addition, the “Effect on Hela at 25 μM” value in experiment [3] is listed as “—”. For the same compound, the concentration for 50% growth inhibition (GI50) in experiment [4] is 25 to 50 µM.

For `COc1ccc(-c2[nH]c(=O)c3cc(OC)ccc3c2O)cc1` [Compound 41, 4-Hydroxy-7-methoxy-3-(4-methoxyphenyl)isoquinolin-1(2H)-one], the IC50 in experiment [1] was more than 50 µM. In addition, the Tubulin polymerization inhibition entry in experiment [2] is “— ((−) signifies that the molecule induces little or no tubulin assembly inhibition in vitro: 0+ or − −5% of the DMSO control.)”. In addition, the “Effect on Hela at 25 μM” value in experiment [3] is on record as “—”. In addition, the GI50 in experiment [4] lay in the range of 1 to 25 µM.

Take `COc1ccc(-c2[nH]c(=O)c3cc(OC)ccc3c2NCCOCCO)cc1` [Compound 50, 4-(2-(2-hydroxyethoxy)ethylamino)-7-methoxy-3-(4-methoxyphenyl)isoquinolin-1(2H)-one]: the IC50 in experiment [1] was more than 50 µM. The Tubulin polymerization inhibition entry in experiment [2] is “+++ ((+++) signifies that the molecule induces tubulin assembly inhibition in vitro of more than 50% with respect to the DMSO control.)”. Besides, the “Effect on Hela at 25 μM” value in experiment [3] is listed as “—”. The compound also returned a concentration for 50% growth inhibition (GI50) in experiment [4] of 25 to 50 µM.

For the compound `O=c1[nH]c(-c2ccc(O)cc2)c(Cl)c2ccc(O)cc12` [Compound 56, 4-Chloro-7-hydroxy-3-(4-hydroxyphenyl)isoquinoline-1(2H)-one], the IC50 in experiment [1] fell in the range of 10 to 24 µM. Also, the Tubulin polymerization inhibition result in experiment [2] is on record as “— ((−) signifies that the molecule induces little or no tubulin assembly inhibition in vitro: 0+ or − −5% of the DMSO control.)”. Also, in experiment [3], the “Effect on Hela at 25 μM” value was “—”. Moreover, in experiment [3] (100 μM), the “Effect on Hela at 100 μM” value is “*”. Besides, the GI50 in experiment [4] was more than 50 µM.

With `O=c1c2ccccc2cc(-c2ccccc2)n1Cc1ccc(O)cc1` [Compound 74, 2-(p-hydroxybenzyl)-3penylisoquinolin-1(2H)-one], in experiment [1], the IC50 was 10 to 24 µM. Further, in experiment [3], the “Effect on Hela at 25 μM” value is “—”. The “Effect on Hela at 50 μM” value in experiment [3] (50 μM) is listed as “*”. Besides, in experiment [4], the concentration for 50% growth inhibition (GI50) fell in the range of 25 to 50 µM.

Turning to `COc1ccc(/C=C\c2cc(OC)c(OC)c(OC)c2)cc1O` [combretastatin A-4, reference compound], the “inhibition of PP1Cα activity in vitro” value in experiment [1] (PP1Cα 30 mU/well, diFMUP, negative control) is recorded as “does not inhibit PP1 activity”.

Source of the values: US8883763B2 (Universite Joseph Fourier, priority 2010, dated 2014).
